Measurements as given in publication PMC3445516 (PLoS ONE, 2012).
Where two headings read alike, the source gives them in different places.

Experiments:
Assay in all cases: Ambit kinase profiling, competition binding
ACVR2B = target: T1, ACVR2B (Homo sapiens, UniProt Q13705); conditions: for % Competition: 10 µM
T1 construct: purchased Ambit Biosciences (KINOMEscan)
Description: (§1) Also included in the kinase profile are four isoforms of PKC (δ, ε, η, θ) and eight isoforms of CAMKs (CAMKIα, δ, γ; CAMKIIα, β, δ, γ; CAMK4).
(§2) The global kinase profiling experiment was performed by Ambit Biosciences.

CLK1 = target: T2, CLK1 (Homo sapiens, UniProt P49759)
T2 construct: purchased Ambit Biosciences (KINOMEscan)
Description: as §1, §2

DAPK1 = target: T3, DAPK1 (Homo sapiens, UniProt P53355)
T3 construct: purchased Ambit Biosciences (KINOMEscan)
Description: as §1, §2

EGFR(S752-I759del) = target: T4, EGFR(S752-I759del) (Homo sapiens, UniProt P00533, DEL752-759); conditions: for % Competition: 10 µM
T4 construct: purchased Ambit Biosciences (KINOMEscan)
Description: as §1, §2

EPHA1 = target: T5, EPHA1 (Homo sapiens, UniProt P21709)
T5 construct: purchased Ambit Biosciences (KINOMEscan)
T5 sequence (P21709 26-976): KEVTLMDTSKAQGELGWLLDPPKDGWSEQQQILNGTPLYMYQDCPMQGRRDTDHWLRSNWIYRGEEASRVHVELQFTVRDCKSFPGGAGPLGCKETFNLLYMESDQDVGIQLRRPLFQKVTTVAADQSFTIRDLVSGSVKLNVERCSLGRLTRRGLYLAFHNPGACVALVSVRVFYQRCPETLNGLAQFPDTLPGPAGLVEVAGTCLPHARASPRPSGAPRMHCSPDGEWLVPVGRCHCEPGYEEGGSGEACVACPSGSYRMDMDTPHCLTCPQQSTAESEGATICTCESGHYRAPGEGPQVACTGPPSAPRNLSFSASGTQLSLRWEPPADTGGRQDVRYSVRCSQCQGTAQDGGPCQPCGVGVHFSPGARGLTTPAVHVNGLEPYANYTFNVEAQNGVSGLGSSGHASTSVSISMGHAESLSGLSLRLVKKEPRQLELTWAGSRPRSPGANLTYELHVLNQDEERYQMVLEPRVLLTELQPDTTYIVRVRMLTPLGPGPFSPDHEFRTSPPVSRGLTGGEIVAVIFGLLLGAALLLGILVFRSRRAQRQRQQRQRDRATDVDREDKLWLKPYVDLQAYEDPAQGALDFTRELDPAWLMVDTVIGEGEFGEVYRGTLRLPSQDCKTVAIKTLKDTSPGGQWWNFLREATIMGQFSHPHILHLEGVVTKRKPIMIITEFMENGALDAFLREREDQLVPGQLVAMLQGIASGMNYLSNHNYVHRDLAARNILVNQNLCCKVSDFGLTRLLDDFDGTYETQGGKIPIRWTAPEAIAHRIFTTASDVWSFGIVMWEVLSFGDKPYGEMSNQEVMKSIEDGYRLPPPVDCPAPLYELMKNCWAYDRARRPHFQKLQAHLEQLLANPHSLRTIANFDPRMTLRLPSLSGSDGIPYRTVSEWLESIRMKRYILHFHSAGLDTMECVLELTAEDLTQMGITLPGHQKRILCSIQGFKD
Description: as §1, §2

[1] = target: T6, JAK1 (JH2 domain-pseudokinase) (Homo sapiens, UniProt P23458); conditions: for % Competition: JAK1 (JH2 domain-pseudokinase), 10 µM
T6 construct: JAK1 (JH2 domain-pseudokinase); purchased Ambit Biosciences (KINOMEscan)
Description: as §1, §2

SYK = target: T7, SYK (Homo sapiens, UniProt P43405); conditions: for % Competition: 10 µM
T7 construct: purchased Ambit Biosciences (KINOMEscan)
Description: as §1, §2

TNNI3K = target: T8, TNNI3K (Homo sapiens, UniProt Q59H18)
T8 construct: purchased Ambit Biosciences (KINOMEscan)
T8 sequence (Q59H18 1-835): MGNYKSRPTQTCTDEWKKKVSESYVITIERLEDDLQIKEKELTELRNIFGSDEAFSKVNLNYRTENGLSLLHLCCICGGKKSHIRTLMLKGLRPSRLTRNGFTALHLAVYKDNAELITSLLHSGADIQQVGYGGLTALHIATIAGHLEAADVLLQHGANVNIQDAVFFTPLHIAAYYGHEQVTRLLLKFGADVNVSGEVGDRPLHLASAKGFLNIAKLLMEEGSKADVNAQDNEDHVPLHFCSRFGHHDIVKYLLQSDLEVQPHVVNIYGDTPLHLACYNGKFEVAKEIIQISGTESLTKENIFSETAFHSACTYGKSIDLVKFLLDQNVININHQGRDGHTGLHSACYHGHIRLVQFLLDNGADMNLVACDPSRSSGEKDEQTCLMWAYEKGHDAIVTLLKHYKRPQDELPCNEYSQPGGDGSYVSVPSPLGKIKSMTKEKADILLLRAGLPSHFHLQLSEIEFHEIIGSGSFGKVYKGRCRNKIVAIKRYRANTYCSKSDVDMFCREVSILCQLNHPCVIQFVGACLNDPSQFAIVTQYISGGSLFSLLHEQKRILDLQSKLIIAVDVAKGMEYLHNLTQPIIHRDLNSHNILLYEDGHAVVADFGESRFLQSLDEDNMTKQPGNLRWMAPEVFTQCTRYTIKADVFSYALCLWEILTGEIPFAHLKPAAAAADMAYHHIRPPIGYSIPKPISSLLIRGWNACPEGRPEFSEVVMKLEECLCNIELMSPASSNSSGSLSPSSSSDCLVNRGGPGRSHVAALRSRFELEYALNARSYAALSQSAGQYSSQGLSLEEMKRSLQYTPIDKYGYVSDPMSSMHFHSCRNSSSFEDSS
Description: as §1, §2

T1 sequence (Q13705 19-512): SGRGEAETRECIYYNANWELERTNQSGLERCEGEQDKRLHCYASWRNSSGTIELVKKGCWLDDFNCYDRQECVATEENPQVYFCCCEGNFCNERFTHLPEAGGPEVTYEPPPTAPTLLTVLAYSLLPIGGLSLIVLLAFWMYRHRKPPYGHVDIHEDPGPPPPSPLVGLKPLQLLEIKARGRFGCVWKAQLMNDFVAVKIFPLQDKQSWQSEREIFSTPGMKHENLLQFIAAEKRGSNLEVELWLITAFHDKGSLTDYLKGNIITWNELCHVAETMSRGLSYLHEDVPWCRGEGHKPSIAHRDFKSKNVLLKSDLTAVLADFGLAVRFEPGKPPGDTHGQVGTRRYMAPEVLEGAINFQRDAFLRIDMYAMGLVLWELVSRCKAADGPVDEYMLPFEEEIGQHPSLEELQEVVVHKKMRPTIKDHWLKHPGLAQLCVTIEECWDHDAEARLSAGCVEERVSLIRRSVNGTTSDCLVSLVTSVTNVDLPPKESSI
T2 sequence (P49759 whole entry): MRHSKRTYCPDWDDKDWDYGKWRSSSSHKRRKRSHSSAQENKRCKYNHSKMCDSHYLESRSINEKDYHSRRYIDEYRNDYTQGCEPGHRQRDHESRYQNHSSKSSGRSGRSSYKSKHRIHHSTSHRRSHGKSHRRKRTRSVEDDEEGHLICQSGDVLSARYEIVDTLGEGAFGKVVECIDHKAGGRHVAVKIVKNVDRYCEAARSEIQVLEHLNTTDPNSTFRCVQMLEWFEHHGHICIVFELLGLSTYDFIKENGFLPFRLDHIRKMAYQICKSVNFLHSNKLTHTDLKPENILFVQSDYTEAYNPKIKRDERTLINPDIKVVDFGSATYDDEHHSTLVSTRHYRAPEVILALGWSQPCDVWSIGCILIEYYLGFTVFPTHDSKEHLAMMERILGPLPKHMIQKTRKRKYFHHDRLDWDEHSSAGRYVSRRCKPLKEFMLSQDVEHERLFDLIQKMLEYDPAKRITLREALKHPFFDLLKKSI
T3 sequence (P53355 whole entry): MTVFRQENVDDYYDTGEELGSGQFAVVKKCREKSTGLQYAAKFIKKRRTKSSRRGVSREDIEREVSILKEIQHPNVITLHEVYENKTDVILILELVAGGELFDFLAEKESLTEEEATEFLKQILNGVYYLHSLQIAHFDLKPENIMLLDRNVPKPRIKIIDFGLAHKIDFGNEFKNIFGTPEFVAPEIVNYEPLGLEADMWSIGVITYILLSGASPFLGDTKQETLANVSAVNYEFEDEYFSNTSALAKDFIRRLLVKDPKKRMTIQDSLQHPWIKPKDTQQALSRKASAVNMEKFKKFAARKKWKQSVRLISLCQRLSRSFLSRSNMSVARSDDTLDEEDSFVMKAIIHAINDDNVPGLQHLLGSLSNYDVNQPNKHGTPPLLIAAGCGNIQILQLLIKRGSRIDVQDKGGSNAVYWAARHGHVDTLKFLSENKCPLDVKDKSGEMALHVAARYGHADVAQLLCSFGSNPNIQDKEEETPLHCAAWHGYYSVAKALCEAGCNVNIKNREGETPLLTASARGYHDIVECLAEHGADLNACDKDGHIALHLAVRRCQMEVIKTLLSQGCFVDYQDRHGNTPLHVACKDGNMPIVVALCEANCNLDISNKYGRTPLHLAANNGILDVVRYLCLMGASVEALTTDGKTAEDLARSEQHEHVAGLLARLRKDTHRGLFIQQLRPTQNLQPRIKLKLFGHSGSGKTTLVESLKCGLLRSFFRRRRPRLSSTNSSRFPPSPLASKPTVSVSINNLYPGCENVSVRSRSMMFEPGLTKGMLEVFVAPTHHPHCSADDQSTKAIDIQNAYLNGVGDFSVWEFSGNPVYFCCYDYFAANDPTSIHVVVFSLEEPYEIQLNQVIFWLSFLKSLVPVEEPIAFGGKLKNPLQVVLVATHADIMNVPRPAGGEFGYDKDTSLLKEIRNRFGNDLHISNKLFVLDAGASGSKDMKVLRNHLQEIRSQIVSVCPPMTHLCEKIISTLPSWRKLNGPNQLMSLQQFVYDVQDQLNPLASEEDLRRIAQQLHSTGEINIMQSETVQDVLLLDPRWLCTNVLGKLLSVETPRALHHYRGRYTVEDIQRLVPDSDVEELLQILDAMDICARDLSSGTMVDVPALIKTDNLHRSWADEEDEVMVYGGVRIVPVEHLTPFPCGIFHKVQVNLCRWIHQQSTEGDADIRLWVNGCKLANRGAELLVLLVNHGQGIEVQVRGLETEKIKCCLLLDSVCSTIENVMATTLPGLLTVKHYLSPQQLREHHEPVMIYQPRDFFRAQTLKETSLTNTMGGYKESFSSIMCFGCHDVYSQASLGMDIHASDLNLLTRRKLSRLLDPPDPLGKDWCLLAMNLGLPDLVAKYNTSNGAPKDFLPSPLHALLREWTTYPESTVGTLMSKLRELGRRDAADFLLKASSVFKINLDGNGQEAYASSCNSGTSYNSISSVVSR
T6 sequence (P23458 583-855 limits assumed): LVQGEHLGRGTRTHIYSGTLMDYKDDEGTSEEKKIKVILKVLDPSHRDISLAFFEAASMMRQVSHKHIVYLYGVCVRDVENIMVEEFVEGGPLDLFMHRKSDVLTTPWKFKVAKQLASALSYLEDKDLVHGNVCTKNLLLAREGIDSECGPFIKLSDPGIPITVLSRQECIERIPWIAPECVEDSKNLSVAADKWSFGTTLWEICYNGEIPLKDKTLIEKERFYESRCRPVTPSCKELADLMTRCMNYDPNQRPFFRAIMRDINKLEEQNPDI

| Percent Competition (ACVR2B; compound concentration 10 uM) | inhibition at 10 µM (CLK1; CLK1, compound concentration 10 uM, read-out: Percent Competition) | inhibition at 10 µM (DAPK1; DAPK1, compound concentration 10 uM, read-out: Percent Competition) | Percent Competition (EGFR(S752-I759del); compound concentration 10 uM) | inhibition at 10 µM (EPHA1; EPHA1, compound concentration 10 uM, read-out: Percent Competition) | Percent Competition ([1]; JAK1(JH2domain-pseudokinase), compound concentration 10 uM) | Percent Competition (SYK; compound concentration 10 uM) | inhibition at 10 µM (TNNI3K; TNNI3K, compound concentration 10 uM, read-out: Percent Competition) | inhibition at 10 µM (CLK1; CLK1, 10 µM, read-out: % Competition) | inhibition at 10 µM (DAPK1; DAPK1, 10 µM, read-out: % Competition) | inhibition at 10 µM (EPHA1; EPHA1, 10 µM, read-out: % Competition) | inhibition at 10 µM (TNNI3K; TNNI3K, 10 µM, read-out: % Competition) | Compound | % Competition (ACVR2B) | % Competition (EGFR(S752-I759del)) | % Competition [1] | % Competition (SYK) | inhibition at 10 µM (CLK1; read-out: % Competition) | inhibition at 10 µM (DAPK1; read-out: % Competition) | inhibition at 10 µM (EPHA1; read-out: % Competition) | inhibition at 10 µM (TNNI3K; read-out: % Competition) |
| --- | --- | --- | --- | --- | --- | --- | --- | --- | --- | --- | --- | --- | --- | --- | --- | --- | --- | --- | --- | --- |
| 92% | 97% | < 50% | 98% | 81% | 99% | 72% | 67% |  |  |  |  | Fc1ccc(-c2c(-c3ccncc3)[nH]c3nccnc23)cc1 [RO1155697-000-005] |  |  |  |  |  |  |  |  |
|  |  |  |  |  |  |  |  | 97% | < 50% | 81% | 67% | Fc1ccc(-c2c(-c3ccncc3)[nH]c3nccnc23)cc1 [Compound 122] | 92% | 98% | 99% | 72% |  |  |  |  |
|  |  |  |  |  |  |  |  |  |  |  |  | CC(O)CNc1cc(-c2[nH]c3cccnc3c2-c2ccc(F)cc2)ccn1 (stereo not drawn) [Compound 140] | <50% | 91% | 90% | <50% | < 50% | 73% | < 50% | < 50% |
